Experiments:
BRM = target: T1, BRM (Homo sapiens, UniProt P51531); experiment: ATPase catalytic activity assay (ADP-Glo), BRM; format: biochemical; details: ATPase assay, selectivity BRG1/BRM, Table 10
T1 construct: made in house; host or cells: High Five insect cells
Method: The ATPase catalytic activity of BRM or BRG-1 was measured by an in vitro biochemical assay using ADP-Glo™ (Promega, V9102). The ADP-Glo™ kinase assay is performed in two steps once the reaction is complete. The first step is to deplete any unconsumed ATP in the reaction. The second step is to convert the reaction product ADP to ATP, which will be utilized by the luciferase to generate luminesce and be detected by a luminescence reader, such as Envision.
The assay reaction mixture […] contains 30 nM of BRM or BRG-1, 20 nM salmon sperm DNA (from Invitrogen, UltraPure™ Salmon Sperm DNA Solution, cat #15632011), and 400 μM of ATP in the ATPase assay buffer, which comprises of 20 mM Tris, pH 8, 20 mM MgCl2, 50 mM NaCl, 0.1% Tween-20, and 1 mM fresh DTT (Pierce™ DTT (Dithiothreitol), cat #20290). The reaction is initiated by the addition of the 2.5 μL ATPase solution to 2.5 μL ATP/DNA solution on low volume white Proxiplate-384 plus plate (PerkinElmer, cat #6008280) and incubates at room temperature for 1 hour. Then, following addition of 5 μL of ADP-Glo™ Reagent provided in the kit, the reaction incubates at room temperature for 40 minutes. Then, 10 μL of Kinase Detection Reagent provided in the kit is added to convert ADP to ATP, and the reaction incubates at room temperature for 60 minutes. Finally, luminescence measurement is collected with a plate-reading luminometer, such as Envision.

[1] = test system: BRM-dependent transcription (BRG1 mutant lung cancer cell line A549); experiment: BRM-dependent transcription, MMTV luciferase reporter in BRG1 mutant A549 cells; format: cell-based; details: Table 11; for IC50: A549-MMTV luciferase reporter, dexamethasone induced, 6 hours; for Ratio (MDA-MMTV IC50 (μM) divided by A549-MMTV IC50 (μM)): MMTV luciferase reporter cell lines, selectivity BRG1/BRM
Method: The potential inhibitory effects of compounds on BRG1 and BRM dependent transcription was study by testing the activity of against the BRG1 mutant lung cancer cell line A549 and a MDA cell line with BRM removed by CRISPR. Both cell lines were genetically engineered with a BRG1 or BRM-dependent mouse mammary tumor virus luciferase reporter. Luciferase transcription was induced by dexamethasone in the presence of compound at different concentrations and luminescence was measured using a plate reader 6 hours after stimulation.

T1 sequence (P51531 whole entry): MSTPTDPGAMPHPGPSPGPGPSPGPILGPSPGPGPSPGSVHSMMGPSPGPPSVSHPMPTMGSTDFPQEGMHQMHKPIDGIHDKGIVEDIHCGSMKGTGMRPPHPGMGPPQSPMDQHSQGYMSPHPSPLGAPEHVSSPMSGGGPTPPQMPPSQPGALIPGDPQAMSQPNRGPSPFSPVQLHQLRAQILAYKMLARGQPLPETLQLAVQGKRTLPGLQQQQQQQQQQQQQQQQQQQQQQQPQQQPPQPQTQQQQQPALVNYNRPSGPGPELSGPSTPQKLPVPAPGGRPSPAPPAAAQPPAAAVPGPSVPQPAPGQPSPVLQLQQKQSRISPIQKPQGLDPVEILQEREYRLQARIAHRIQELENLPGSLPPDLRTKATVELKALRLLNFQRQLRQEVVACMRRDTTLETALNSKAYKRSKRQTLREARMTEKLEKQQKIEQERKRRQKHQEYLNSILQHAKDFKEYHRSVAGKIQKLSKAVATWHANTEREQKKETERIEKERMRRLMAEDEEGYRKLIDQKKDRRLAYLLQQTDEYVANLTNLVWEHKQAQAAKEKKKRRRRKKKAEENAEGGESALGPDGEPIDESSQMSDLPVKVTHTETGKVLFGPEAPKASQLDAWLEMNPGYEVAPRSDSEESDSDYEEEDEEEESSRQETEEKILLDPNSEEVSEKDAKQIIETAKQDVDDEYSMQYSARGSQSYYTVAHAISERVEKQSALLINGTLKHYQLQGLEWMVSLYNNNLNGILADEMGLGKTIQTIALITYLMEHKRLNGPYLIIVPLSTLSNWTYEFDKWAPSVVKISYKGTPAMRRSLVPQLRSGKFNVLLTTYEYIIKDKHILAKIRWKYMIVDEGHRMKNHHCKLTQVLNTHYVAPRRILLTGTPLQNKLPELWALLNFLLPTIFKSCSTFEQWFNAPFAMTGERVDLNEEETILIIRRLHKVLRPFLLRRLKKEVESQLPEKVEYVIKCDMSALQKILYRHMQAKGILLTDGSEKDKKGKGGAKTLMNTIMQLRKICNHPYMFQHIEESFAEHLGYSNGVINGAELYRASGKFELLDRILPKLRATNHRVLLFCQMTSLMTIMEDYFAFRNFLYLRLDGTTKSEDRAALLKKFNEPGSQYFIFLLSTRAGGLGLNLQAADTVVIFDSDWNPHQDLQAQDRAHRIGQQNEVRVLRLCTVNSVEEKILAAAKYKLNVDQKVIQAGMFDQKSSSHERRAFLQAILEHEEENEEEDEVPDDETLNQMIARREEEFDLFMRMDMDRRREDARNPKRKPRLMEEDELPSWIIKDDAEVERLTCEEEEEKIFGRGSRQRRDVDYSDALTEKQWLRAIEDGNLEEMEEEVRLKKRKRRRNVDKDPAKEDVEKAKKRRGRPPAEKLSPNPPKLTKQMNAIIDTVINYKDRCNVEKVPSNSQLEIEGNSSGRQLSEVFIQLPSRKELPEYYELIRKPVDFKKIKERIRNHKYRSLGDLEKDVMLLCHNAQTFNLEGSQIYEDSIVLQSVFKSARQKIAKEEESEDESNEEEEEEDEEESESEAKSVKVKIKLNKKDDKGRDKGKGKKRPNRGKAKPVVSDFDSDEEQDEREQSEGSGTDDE

| Ratio (BRG1 IC50 (μM) divided by BRM IC50 (μM)) (BRM) | IC50 ([1]; Homo sapiens, A549, 6 h) | Ratio (MDA-MMTV IC50 (μM) divided by A549-MMTV IC50 (μM)) [1] | IC50 [1] | Structure (SMILES) |
| --- | --- | --- | --- | --- |
| – | 16.9 nM | 33.18 | – | CCOc1nc(C(F)F)ccc1-c1ccc2cnc(CNC(=O)c3cc(Cl)c4c(c3)S(=O)(=O)[C@@H](F)CCO4)cc2n1 [Compound 331, (R)-9-chloro-N-((2-(6-(difluoromethyl)-2-ethoxypyridin-3-yl)-1,6-naphthyridin-7-yl)methyl)-4-fluoro-3,4-dihydro-2H-benzo[b][1,4]oxathiepine-7-carboxamide 5,5-dioxide] |
| – | 15.4 nM | 31.11 | – | COc1cccc(-c2ccc3cnc(CNC(=O)c4cc(F)c5c(c4)S(=O)(=O)[C@@H](F)CCO5)cc3n2)n1 [Compound 333] |
| – | 19 nM | 26.38 | – | O=C(NCc1cc2nc(-c3cccc(C(F)F)n3)ccc2cn1)c1cc(F)c2c(c1)S(=O)(=O)[C@@H](F)CCO2 [Compound 334] |
| – | 16.3 nM | 30.32 | – | O=C(NCc1cc2nc(-c3cccc(C(F)(F)F)n3)ccc2cn1)c1cc(F)c2c(c1)S(=O)(=O)[C@@H](F)CCO2 [Compound 335] |
| – | 15.3 nM | 22.47 | – | O=C(NCc1cc2nc(-c3cccc(C4CC4(F)F)n3)ccc2cn1)c1cc(F)c2c(c1)S(=O)(=O)[C@@H](F)CCO2 (stereo partly drawn) [Compound 336] |
| – | 20.1 nM | 30.81 | – | O=C(NCc1cc2nc(-c3cccc(C4CC4)n3)ccc2cn1)c1cc(Cl)c2c(c1)S(=O)(=O)[C@@H](F)CCO2 [Compound 337] |
| – | 14.1 nM | 21.68 | – | COc1ccccc1-c1ccc2cnc(CNC(=O)c3cc(F)c4c(c3)S(=O)(=O)[C@@H](F)CCO4)cc2n1 [Compound 338] |
| – | 19.4 nM | 40.09 | – | Cc1cc(C(=O)NCc2cc3nc(-c4cccc(C5CC5)n4)ccc3cn2)cc2c1OCC[C@H](F)S2(=O)=O [Compound 339] |
| – | 18.6 nM | 25.42 | – | O=C(NCc1cc2nc(-c3ccnc(C4CC4)n3)ccc2cn1)c1cc(F)c2c(c1)S(=O)(=O)[C@@H](F)CCO2 [Compound 344] |
| – | 15.6 nM | 21.59 | – | O=C(NCc1cc2nc(-c3ccnc(N4CCCC4)n3)ccc2cn1)c1cc(Cl)c2c(c1)S(=O)(=O)[C@@H](F)CCO2 [Compound 345] |
| – | 19.9 nM | 44.98 | – | O=C(NCc1cc2nc(-c3cccc(OC(F)F)n3)ccc2cn1)c1cc(Cl)c2c(c1)S(=O)(=O)[C@@H](F)CCO2 [Compound 346] |
| – | 17.2 nM | 25.03 | – | Cc1ccc(-c2ccc3cnc(CNC(=O)c4cc(Cl)c5c(c4)S(=O)(=O)[C@@H](F)CCO5)cc3n2)c(OC(F)F)n1 [Compound 347] |
| – | 13.9 nM | 30.79 | – | COc1nc(C(F)(F)F)ccc1-c1ccc2cnc(CNC(=O)c3cc(Cl)c4c(c3)S(=O)(=O)[C@@H](F)CCO4)cc2n1 [Compound 348] |
| – | 13 nM | 34.91 | – | CN(C)c1nccc(-c2ccc3cnc(CNC(=O)c4cc(F)c5c(c4)S(=O)(=O)[C@@H](F)CCO5)cc3n2)n1 [Compound 349] |
| – | 17.2 nM | 26.53 | – | COCc1ccc(-c2ccc3cnc(CNC(=O)c4cc(F)c5c(c4)S(=O)(=O)[C@@H](F)CCO5)cc3n2)nc1C1CC1 [Compound 354] |
| – | 13.1 nM | 23.10 | – | O=C(NCc1cc2nc(-c3ccc(OC(F)F)c(C4CC4)n3)ccc2cn1)c1cc(Cl)c2c(c1)S(=O)(=O)[C@@H](F)CCO2 [Compound 355] |
| – | – | 22.68 | 12.4 nM | O=C(NCc1cc2nc(-c3ccc(OC(F)F)c(C4CC4)n3)ccc2cn1)c1cc(Cl)c2c(c1)S(=O)(=O)[C@@H](F)CCO2 [Compound 357] |
| – | 15.3 nM | 27.40 | – | CCOc1cccc(-c2ccc3cnc(CNC(=O)c4cc(F)c5c(c4)S(=O)(=O)[C@@H](F)CCO5)cc3n2)n1 [Compound 358] |
| – | 18.8 nM | 29.73 | – | CCOc1cccc(-c2ccc3cnc(CNC(=O)c4cc(Cl)c5c(c4)S(=O)(=O)[C@@H](F)CCO5)cc3n2)n1 [Compound 359] |
| – | 19.9 nM | 23.20 | – | COc1nc(-c2ccc3cnc(CNC(=O)c4cc(Cl)c5c(c4)S(=O)(=O)[C@@H](F)CCO5)cc3n2)ccc1C(F)F [Compound 360] |
| – | 17.9 nM | 22.13 | – | O=C(NCc1cc2nc(-c3cccc(OC(F)(F)F)n3)ccc2cn1)c1cc(F)c2c(c1)S(=O)(=O)[C@@H](F)CCO2 [Compound 361] |
| – | 22.2 nM | 31.16 | – | O=C(NCc1cc2nc(-c3cccc(OC(F)(F)Cl)n3)ccc2cn1)c1cc(Cl)c2c(c1)S(=O)(=O)[C@@H](F)CCO2 [Compound 362] |

Further lines, the compound ahead of its results:

| Structure (SMILES) | Ratio (BRG1 IC50 (μM) divided by BRM IC50 (μM)) (BRM) | IC50 ([1]; Homo sapiens, A549, 6 h) | Ratio (MDA-MMTV IC50 (μM) divided by A549-MMTV IC50 (μM)) [1] | IC50 [1] |
| --- | --- | --- | --- | --- |
| C[C@@H]1CN(c2cccc(-c3ccc4cnc(CNC(=O)c5cc(F)c6c(c5)S(=O)(=O)[C@@H](F)CCO6)cc4n3)n2)C[C@H](C)O1 [Compound 14] | 9.92 | – | – | – |
| C[C@@H]1CN(c2cccc(-c3ccc4cnc(CNC(=O)c5cc(F)c6c(c5)S(=O)(=O)[C@@H](F)CCO6)cc4n3)n2)C[C@H](C)O1 [Compound 325] | 13.06 | – | – | – |
| O=C(NCc1cc2nc(-c3ccc(C(F)F)nc3OCC3CC3)ccc2cn1)c1cc(F)c2c(c1)S(=O)(=O)[C@@H](F)CCO2 [Compound 332, (4R)—N-[[2-[2-(cyclopropylmethoxy)-6-(difluoromethyl)-3-pyridyl]-1,6-naphthyridin-7-yl]methyl]-4,9-difluoro-5,5-dioxo-3,4-dihydro-2H-1,5benzoxathiepine-7-carboxamide] | – | 21 nM | 28.13 | – |
| Cc1cc(C(=O)NCc2cc3nc(N4CCOc5ccc(C(F)F)nc54)ccc3cn2)cc2c1OCC[C@H](F)S2(=O)=O [Compound 340] | – | 15.8 nM | 26.04 | – |
| C[C@@H]1CN(c2cccc(-c3ccc4cnc(CNC(=O)c5cc(F)c6c(c5)S(=O)(=O)[C@@H](F)CO6)cc4n3)n2)C[C@H](C)O1 [Compound 341] | – | 122 nM | 28.75 | – |
| O=C(NCc1cc2nc(-c3cccc(OC(F)F)c3)ccc2cn1)c1cc(F)c2c(c1)S(=O)(=O)[C@@H](F)CCO2 [Compound 342] | – | 17.9 nM | 23.62 | – |
| O=C(NCc1cc2nc(-c3ccnc(N4CCC4)n3)ccc2cn1)c1cc(F)c2c(c1)S(=O)(=O)[C@@H](F)CCO2 [Compound 343] | – | 11.1 nM | 24.93 | – |
| C[C@@H]1CN(c2cccc(-c3ccc4cnc(CNC(=O)c5cc(C6CC6)c6c(c5)S(=O)(=O)[C@@H](F)CCO6)cc4n3)n2)C[C@H](C)O1 [Compound 350] | – | 17 nM | 25.08 | – |
| C[C@@H](CF)c1ccc2c(n1)N(c1ccc3cnc(CNC(=O)c4cc(F)c5c(c4)S(=O)(=O)[C@@H](F)CCO5)cc3n1)CCO2 [Compound 351] | – | 20 nM | 25.07 | – |
| O=C(NCc1cc2nc(N3CCCc4cc(OC(F)(F)F)cnc43)ccc2cn1)c1cc(F)c2c(c1)S(=O)(=O)[C@@H](F)CCO2 [Compound 352] | – | 16.3 nM | 23.28 | – |
| O=C(NCc1cc2nc(N3CCOc4cc(N5CC(F)(F)C5)cnc43)ccc2cn1)c1cc(F)c2c(c1)S(=O)(=O)[C@@H](F)CCO2 [Compound 353] | – | 15.5 nM | 21.63 | – |
| COc1nc([C@@](C)(F)C(F)F)ccc1-c1ccc2cnc(CNC(=O)c3cc(F)c4c(c3)S(=O)(=O)[C@@H](F)CCO4)cc2n1 [Compound 356] | – | 14.6 nM | 23.98 | – |
| COc1nc([C@](C)(F)C(F)F)ccc1-c1ccc2cnc(CNC(=O)c3cc(F)c4c(c3)S(=O)(=O)[C@@H](F)CCO4)cc2n1 [Compound 363] | – | 16.9 nM | 22.45 | – |
| O=C(NCc1cc2nc(-c3cccc(C4CC4)n3)ccc2cn1)c1ccc2c(c1)S(=O)(=O)[C@@H](F)CCOC2 [Compound 364] | – | 1.9 nM | 22.21 | – |
| COc1nc(C(F)F)ccc1-c1ccc2cnc(CNC(=O)c3cc(Br)c4c(c3)S(=O)(=O)[C@@H](F)CCO4)cc2n1 [Compound 365] | – | 21.3 nM | 24.82 | – |
